tested on: Endothelial cell; assay: Inhibition of human umbilical vein endothelial cell adhesion to fibrinogen, vitronectin and fibronectin coated surfaces;NI means no inhibition at 300 uM; format: functional, cell-based

SMILES | inhibition
O=C(O)CCNC(=O)c1cc2n(c1)CCN(CCC1CCNCC1)C2=O | No inhibition

target: Integrin alpha-IIb/beta-3 (Homo sapiens, UniProt P05106+P08514); assay: Inhibition of fibrinogen binding to glycoprotein alpha IIb beta-3 integrin of activated platelets
Sequence (P05106 27-788 limits assumed): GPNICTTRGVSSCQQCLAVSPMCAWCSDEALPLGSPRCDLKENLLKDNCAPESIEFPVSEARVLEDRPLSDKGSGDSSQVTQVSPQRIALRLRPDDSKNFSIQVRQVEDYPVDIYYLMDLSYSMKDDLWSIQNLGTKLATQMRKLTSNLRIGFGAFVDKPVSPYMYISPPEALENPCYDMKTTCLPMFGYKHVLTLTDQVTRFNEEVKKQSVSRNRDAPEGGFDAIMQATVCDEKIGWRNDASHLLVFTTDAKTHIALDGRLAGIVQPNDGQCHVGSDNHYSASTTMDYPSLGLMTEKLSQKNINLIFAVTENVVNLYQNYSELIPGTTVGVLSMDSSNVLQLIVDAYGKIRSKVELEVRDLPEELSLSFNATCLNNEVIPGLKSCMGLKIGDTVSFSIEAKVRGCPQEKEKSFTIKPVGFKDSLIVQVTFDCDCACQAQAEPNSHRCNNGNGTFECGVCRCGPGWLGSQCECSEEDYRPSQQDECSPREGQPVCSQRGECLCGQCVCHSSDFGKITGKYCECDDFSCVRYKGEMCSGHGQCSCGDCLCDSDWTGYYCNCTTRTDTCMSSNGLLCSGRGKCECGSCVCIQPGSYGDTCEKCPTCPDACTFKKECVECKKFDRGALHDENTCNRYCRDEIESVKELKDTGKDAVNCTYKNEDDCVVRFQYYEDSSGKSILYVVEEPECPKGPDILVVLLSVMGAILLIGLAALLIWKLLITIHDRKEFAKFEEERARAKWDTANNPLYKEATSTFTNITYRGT
Sequence (P08514 32-887 limits assumed): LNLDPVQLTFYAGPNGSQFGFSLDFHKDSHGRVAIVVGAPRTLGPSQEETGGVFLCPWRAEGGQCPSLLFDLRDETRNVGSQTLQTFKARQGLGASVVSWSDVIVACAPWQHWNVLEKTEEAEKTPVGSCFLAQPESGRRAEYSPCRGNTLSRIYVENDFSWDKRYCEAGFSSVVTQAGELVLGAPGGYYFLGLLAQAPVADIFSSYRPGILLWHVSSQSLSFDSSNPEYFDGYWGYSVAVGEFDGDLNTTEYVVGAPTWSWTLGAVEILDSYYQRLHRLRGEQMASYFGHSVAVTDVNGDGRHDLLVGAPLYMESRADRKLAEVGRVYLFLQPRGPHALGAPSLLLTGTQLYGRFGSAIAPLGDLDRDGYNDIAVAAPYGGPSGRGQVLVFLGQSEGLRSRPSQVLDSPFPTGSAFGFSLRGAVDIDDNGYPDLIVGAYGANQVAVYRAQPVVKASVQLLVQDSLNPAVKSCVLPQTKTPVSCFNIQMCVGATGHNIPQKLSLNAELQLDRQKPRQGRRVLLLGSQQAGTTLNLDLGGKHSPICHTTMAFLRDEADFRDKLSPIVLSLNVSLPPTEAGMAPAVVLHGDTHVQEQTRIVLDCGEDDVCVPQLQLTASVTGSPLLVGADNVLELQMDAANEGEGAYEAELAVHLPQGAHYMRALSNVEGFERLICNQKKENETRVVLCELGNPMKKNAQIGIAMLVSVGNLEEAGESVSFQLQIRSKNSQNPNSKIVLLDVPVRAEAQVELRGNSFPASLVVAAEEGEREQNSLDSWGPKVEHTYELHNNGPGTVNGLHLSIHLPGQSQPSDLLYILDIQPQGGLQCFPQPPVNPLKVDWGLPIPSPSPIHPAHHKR
Sequence (P08514 891-1039 limits assumed): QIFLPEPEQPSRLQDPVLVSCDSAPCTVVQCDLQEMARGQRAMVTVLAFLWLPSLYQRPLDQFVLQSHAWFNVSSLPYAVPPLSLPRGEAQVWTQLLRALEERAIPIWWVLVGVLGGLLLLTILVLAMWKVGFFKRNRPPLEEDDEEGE

SMILES | IC50 [nM]
O=C(O)CCCNC(=O)c1cc2n(n1)CCN(CC1CCNCC1)C2=O | 15000
O=C(O)CCNC(=O)c1cc2n(n1)CCN(CC1CCNCC1)C2=O | 45000
O=C(O)CCN1CCn2nc(C(=O)NCCC3CCNCC3)cc2C1=O | 31000
O=C(O)CNC(=O)c1cc2n(n1)CCN(CCCC1CCNCC1)C2=O | 14000
O=C(O)CCNC(=O)c1cn2c(c1-c1ccccc1)C(=O)N(CCC1CCNCC1)CCC2 | > 300000

Stronger by IC50, values ahead:

IC50 [nM] | SMILES
170 | Cc1c(C(=O)NCCC(=O)O)cn2c1C(=O)N(CCC1CCNCC1)CC2
1300 | O=C(O)CCNC(=O)c1cc2n(n1)CCN(CCCC1CCNCC1)C2=O
79 | O=C(O)CCNC(=O)c1cc2n(c1)CCN(CCC1CCNCC1)C2=O
170 | O=C(O)CCNC(=O)c1cc2n(c1)CCCN(CCC1CCNCC1)C2=O
510 | Cc1c(C(=O)NCCC(=O)O)cn2c1C(=O)N(CCC1CCNCC1)CCC2
250 | O=C(O)CCNC(=O)c1cc2n(n1)CCN(CCC1CCNCC1)C2=O

From ChEMBL document CHEMBL1128650, “Non-peptide glycoprotein IIb/IIIa inhibitors. 6. Design and synthesis of rigid, centrally constrained non-peptide fibrinogen receptor antagonists” (Bioorg Med Chem Lett, 1995)
